Consider four molecules from US5059717A, “Method for purification of 2,2'-di(1,6,7-trihydroxy-3-methyl-5-isopropyl-8-naphthaldehyde)” (priority 1990, dated 1991).

Each structure is given as a SMILES string.

This series relates to mice. The series is described as follows: Acute toxicity in oral administration to mice. Type of series: in vivo. From the text:
The results of tests for an acute toxicity of the thus-obtained desired product when administered orally to mice are shown in the Table hereinbelow.
The results of tests of the thus-obtained desired product for an acute toxicity in oral administration to mice are shown in the Table hereinbelow.
Acute toxicity of 2,2'-di-(1,6,7-trihydroxy-3-methyl-
5-isopropyl-8-naphthaldehyde) in oral administration

`Cc1cc2c(C(C)C)c(O)c(O)c(C=O)c2c(O)c1-c1c(C)cc2c(C(C)C)c(O)c(O)c(C=O)c2c1O` [Example 3, 2,2'-di-(1,6,7-trihydroxy-3-methyl-5-isopropyl-8-naphthaldehyde)]: the LD50 is recorded as 750 (646-870) mg/kg.

For `Cc1cc2c(C(C)C)c(O)c(O)c(C=O)c2c(O)c1-c1c(C)cc2c(C(C)C)c(O)c(O)c(C=O)c2c1O` [Example 1, 2,2'-di-(1,6,7-trihydroxy-3-methyl-5-isopropyl-8-naphthaldehyde)], the LD50 was 640 (450-768) mg/kg.

Turning to `Cc1cc2c(C(C)C)c(O)c(O)c(C=O)c2c(O)c1-c1c(C)cc2c(C(C)C)c(O)c(O)c(C=O)c2c1O` [Example 2, 2,2'-di-(1,6,7-trihydroxy-3-methyl-5-isopropyl-8-naphthaldehyde)], the LD50 entry was “over 1,500 mg/kg”.

For the molecule `Cc1cc2c(C(C)C)c(O)c(O)c(C=O)c2c(O)c1-c1c(C)cc2c(C(C)C)c(O)c(O)c(C=O)c2c1O` [known preparation, 2,2'-di-(1,6,7-trihydroxy-3-methyl-5-isopropyl-8-naphthaldehyde), reference compound], the LD50 is 383 (340-426) mg/kg.
